In patent US6410723B1, “VDUP1 promoter and methods of use thereof” (priority 2000, dated 2002):

What was measured:
VDUP1 gene = conditions: human HL-60 cells; cited from earlier work
[1] = tested on: SV40 immediate early promoter; assay: Secreted alkaline phosphatase reporter assay, COS cells transfected with SV40 promoter control construct, treated with vitamin D3; assay type: cell-based; conditions: addition of vitamin D3 (200 nM), AP reporter
Protocol: (§1) FIG. 5 is a graph showing secreted alkaline phosphatase (SEAP) activity upon transient transfection of COS cells of various VDUP1 promoter constructs operably linked to an alkaline phosphatase encoding nucleotide sequence, treated or untreated with 200 nM Vitamin D3.
(§2) Four deletion constructs were generated corresponding to 5′ end lengths of 1448bp (SEQ ID NO:1), 1002bp (SEQ ID NO:4), 597bp (SEQ ID NO:3), and 452bp (SEQ ID NO:2) as shown in FIG. 1. In the 452bp (SEQ ID NO:2) construct, the two Sp1 elements are deleted. Each fragment was generated by PCR from the 3.0 kb EcoRI-BamHI subclone, and introduced upstream of the secreted alkaline phosphatase (AP) reporter nucleic acid sequence. Representative clones of each were verified by DNA sequencing. The VDUP1 constructs were then transfected into COS cells and screened for expression in comparison to an SV40 immediate early promoter driven AP construct.

thioredoxin (TRX) = conditions: HL-60 cells treated with vitamin D3; cited from earlier work
VDUP1 promoter = assay: Secreted alkaline phosphatase reporter assay, COS cells transiently transfected with VDUP1 promoter constructs, treated with Vitamin D3; assay type: cell-based, monkey; conditions: 200 nM Vitamin D3, all constructs tested, AP reporter
Protocol: as §1, §2

SMILES	induction of VDUP1 (VDUP1 gene)	induction of SV40 control [1]	expression of TRX (thioredoxin (TRX))	enhancement of VDUP1 expression (VDUP1 promoter)
C[C@@H]1C[C@@H]([C@H](O)CC2CC(=O)NC(=O)C2)C(=O)[C@@H](C)C1 [cyclohexamide]	several fold	–	–	–
C=C1/C(=C\C=C2/CCC[C@]3(C)[C@@H]([C@H](C)CCCC(C)(C)O)CC[C@@H]23)C[C@@H](O)C[C@@H]1O [Vitamin D3, 1,25-dihydroxyvitamin D3]	strongly induced	not induced	significant decrease	25%
